From patent US11344533B2, “Autotaxin inhibitor compounds” (Sabre Therapeutics LLC, priority 2013, dated 2022) come the findings set out here.

The first data set addresses human autotaxin (Homo sapiens (Human), UniProt Q13822). The experiment in a line: Human Autotaxin Assay (choline release from LPC, Hep3B conditioned media). It counts as biochemical. The conditions noted are these: ATX activity in concentrated conditioned media from Hep3B cells, substrate LPC.
Turning to “3-((6-chloro-2-cyclopropyl-1-(1-(6-(3-(3′,6′-dihydroxy-3-oxo-3H-spiro[isobenzofuran-1,9′-xanthen]-5-yl)ureido)hexyl)-1H-pyrazol-4-yl)-7-fluoro-1H-indol-3-yl)thio)-2-fluorobenzoic acid [Compound 1-131]”, the IC50 (as a rule, the point on the concentration scale where inhibition reaches its midpoint) was less than 500 nM.
Turning to `CCCn1cc(-n2c(Cl)c(Sc3cccc(C(=O)O)c3)c3ccc(Cl)cc32)cn1` [Compound 1-1, 3-((2,6-dichloro-1-(1-propyl-1H-pyrazol-4-yl)-1H-indol-3-yl)thio)benzoic acid], the IC50 is less than 500 nM.
Still for that read-out and setting: then `CCCn1cc(-n2c(C#N)c(Sc3cccc(C(=O)O)c3)c3ccc(Cl)cc32)cn1` [Compound 1-3, 3-((6-chloro-2-cyano-1-(1-propyl-1H-pyrazol-4-yl)-1H-indol-3-yl)thio)benzoic acid], with less than 500 nM; and `CCCn1cc(-n2c(C3CC3)c(Sc3cccc(C(=O)O)c3)c3ccc(Cl)cc32)cn1` [Compound 1-4, 3-((6-chloro-2-cyclopropyl-1-(1-propyl-1H-pyrazol-4-yl)-1H-indol-3-yl)thio)benzoic acid], with less than 500 nM; and `CCCn1cc(-n2c(Cl)c(Sc3cccc(C(=O)O)c3)c3ccc(Cl)c(F)c32)cn1` [Compound 1-7, 3-((2,6-dichloro-7-fluoro-1-(1-propyl-1H-pyrazol-4-yl)-1H-indol-3-yl)thio)benzoic acid], with less than 500 nM.
Same read-out and setting: then `CCCn1cc(-n2c(C3CC3)c(Sc3cccc(C(=O)O)c3)c3ccc(Cl)c(F)c32)cn1` [Compound 1-10, 3-((6-chloro-2-cyclopropyl-7-fluoro-1-(1-propyl-1H-pyrazol-4-yl)-1H-indol-3-yl)thio)benzoic acid], with less than 500 nM.
The same measure, in the same setting: then `CCCn1cc(-n2c(C3CC3)c(Sc3cccc(C(=O)O)c3F)c3ccc(Cl)c(F)c32)cn1` [Compound 1-16, 3-((6-chloro-2-cyclopropyl-7-fluoro-1-(1-propyl-1H-pyrazol-4-yl)-1H-indol-3-yl)thio)-2-fluorobenzoic acid], with less than 500 nM; and `CCn1cc(-n2c(Cl)c(Sc3cccc(C(=O)O)c3F)c3ccc(Cl)c(F)c32)cn1` [Compound 1-31, 3-((2,6-dichloro-1-(1-ethyl-1H-pyrazol-4-yl)-7-fluoro-1H-indol-3-yl)thio)-2-fluorobenzoic acid], with less than 500 nM; and `Cn1cc(-n2c(Cl)c(Sc3cccc(C(=O)O)c3F)c3ccc(Cl)c(F)c32)cn1` [Compound 1-49, 3-((2,6-dichloro-7-fluoro-1-(1-methyl-1H-pyrazol-4-yl)-1H-indol-3-yl)thio)-2-fluorobenzoic acid], with less than 500 nM.
As for `CCn1cc(-n2c(C3CC3)c(Sc3cccc(C(=O)O)n3)c3ccc(Cl)c(F)c32)cn1` [Compound 1-92, 6((6-chloro-2-cyclopropyl-1-(1-ethyl-1H-pyrazol-4-yl)-7-fluoro-1H-indol-3-yl)thio)picolinic acid], the IC50 was less than 500 nM.
Same read-out and setting: the value for `O=C(O)c1cccc(Sc2c(C3CC3)n(-c3cn[nH]c3)c3c(F)c(Cl)ccc23)c1F` [Compound 1-119, 3-((6-chloro-2-cyclopropyl-7-fluoro-1-(1H-pyrazol-4-yl)-1H-indol-3-yl)thio)-2-fluorobenzoic acid] was less than 500 nM; that for `O=C(O)c1cccc(Sc2c(C3CC3)n(-c3cnn(CCO)c3)c3c(F)c(Cl)ccc23)c1F` [Compound 1-120, 3-((6-chloro-2-cyclopropyl-7-fluoro-1-(1-(2-hydroxyethyl)-1H-pyrazol-4-yl)-1H-indol-3-yl)thio)-2-fluorobenzoic acid] was less than 500 nM.
The same measure, in the same setting: the value for `NC(=O)OCCn1cc(-n2c(C3CC3)c(Sc3cccc(C(=O)O)c3F)c3ccc(Cl)c(F)c32)cn1` [Compound 1-121, 3-(1-(1-(2-(carbamoyloxy)ethyl)-1H-pyrazol-4-yl)-(6-chloro-2-cyclopropyl-7-fluoro-1H-indol-3-yl)thio)-2-fluorobenzoic acid] was less than 500 nM.
`NCCn1cc(-n2c(C3CC3)c(Sc3cccc(C(=O)O)c3F)c3ccc(Cl)c(F)c32)cn1` [Compound 1-122, 3-(1-(1-(2-aminoethyl)-1H-pyrazol-4-yl)-(6-chloro-2-cyclopropyl-7-fluoro-1H-indol-3-yl)thio)-2-fluorobenzoic acid]: the IC50 is less than 500 nM.
On the same count and under the same terms, then `NC(=O)NCCn1cc(-n2c(C3CC3)c(Sc3cccc(C(=O)O)c3F)c3ccc(Cl)c(F)c32)cn1` [Compound 1-123, 3-((6-chloro-2-cyclopropyl-7-fluoro-1-(1-(2-ureidoethyl)-1H-pyrazol-4-yl)-1H-indol-3-yl)thio)-2-fluorobenzoic acid], with less than 500 nM; and `O=C(O)CCCn1cc(-n2c(C3CC3)c(Sc3cccc(C(=O)O)c3F)c3ccc(Cl)c(F)c32)cn1` [Compound 1-124, 3-(1-(1-(3-carboxypropyl)-1H-pyrazol-4-yl)-(6-chloro-2-cyclopropyl-7-fluoro-1H-indol-3-yl)thio)-2-fluorobenzoic acid], with less than 500 nM.
Same read-out and setting: then `NC(=O)CCCn1cc(-n2c(C3CC3)c(Sc3cccc(C(=O)O)c3F)c3ccc(Cl)c(F)c32)cn1` [Compound 1-125, 3-(1-(1-(4-amino-4-oxobutyl)-1H-pyrazol-4-yl)-(6-chloro-2-cyclopropyl-7-fluoro-1H-indol-3-yl)thio)-2-fluorobenzoic acid], with less than 500 nM; and `O=C(O)c1cccc(Sc2c(C3CC3)n(-c3cnn(CC(F)(F)F)c3)c3c(F)c(Cl)ccc23)c1F` [Compound 1-126, 3-((6-chloro-2-cyclopropyl-7-fluoro-1-(1-(2,2,2-trifluoroethyl)-1H-pyrazol-4-yl)-1H-indol-3-yl)thio)-2-fluorobenzoic acid], with less than 500 nM; and `NCCCCCCn1cc(-n2c(C3CC3)c(Sc3cccc(C(=O)O)c3F)c3ccc(Cl)c(F)c32)cn1` [Compound 1-128, 3-(1-(1-(6-aminohexyl)-1H-pyrazol-4-yl)-(6-chloro-2-cyclopropyl-7-fluoro-1H-indol-3-yl)thio)-2-fluorobenzoic acid], with less than 500 nM.
On the same count and under the same terms, then `O=C(O)c1cccc(Sc2c(Cl)n(-c3cccnc3)c3c(F)c(Cl)ccc23)c1F` [Compound 2-1, 3-((2,6-dichloro-7-fluoro-1-(pyridin-3-yl)-1H-indol-3-yl)thio)-2-fluorobenzoic acid], with less than 500 nM; and `O=C(O)c1cccc(Sc2c(Br)n(-c3cccnc3)c3c(F)c(Cl)ccc23)c1F` [Compound 2-2, 3-((2-bromo-6-chloro-7-fluoro-1-(pyridin-3-yl)-1H-indol-3-yl)thio)-2-fluorobenzoic acid], with less than 500 nM; and `O=C(O)c1cccc(Sc2c(C3CC3)n(-c3cccnc3)c3c(F)c(Cl)ccc23)c1F` [Compound 2-3, 3-((6-chloro-2-cyclopropyl-7-fluoro-1-(pyridin-3-yl)-1H-indol-3-yl)thio)-2-fluorobenzoic acid], with less than 500 nM.
The molecule `CCn1cc(-n2c(C3CC3)c(Sc3cccc(CC(=O)O)c3F)c3ccc(Cl)c(F)c32)cn1` [Compound 2-7, 2-(3-((6-chloro-2-cyclopropyl-1-(1-ethyl-1H-pyrazol-4-yl)-7-fluoro-1H-indol-3-yl)thio)-2-fluorophenyl)acetic acid] displayed an IC50 of less than 500 nM.

The test system of the next data set is dog. As to the kind of experiment: dog liver toxicity study. The conditions noted are these: dog liver toxicity study; liver markers ALT, AST, AlkP and bilirubin.
Experimental: In some embodiments, liver toxicity can be assessed in suitable in vivo assays. In some embodiments, liver toxicity is assessed by monitoring any increases in the levels of liver markers ALT, AST, AlkP and bilirubin.
With `CCCn1cc(-n2c(Cl)c(Sc3cccc(C(=O)O)c3F)c3ccc(Cl)c(F)c32)cn1` [Compound 1-13, 3-((2,6-dichloro-7-fluoro-1-(1-propyl-1H-pyrazol-4-yl)-1H-indol-3-yl)thio)-2-fluorobenzoic acid], the liver markers result is “did not exhibit the same effects”.

The data set is the same for the next values; noted with them: dosed at 100 mpk for 5 days.
As for `CCCn1cc(-n2c(Cl)c(Sc3cccc(C(=O)O)c3F)c3ccc(Cl)c(F)c32)cn1` [Compound 1-13, 3-((2,6-dichloro-7-fluoro-1-(1-propyl-1H-pyrazol-4-yl)-1H-indol-3-yl)thio)-2-fluorobenzoic acid], the “increases in liver markers ALT, AST, AlkP and bilirubin” value is “no increases in liver markers ALT, AST, AlkP and bilirubin were observed”.
